Data as given in ChEMBL document CHEMBL5260859, “Discovery and structure-activity relationship study of 2-piperazinyl-benzothiazole derivatives as potent and selective PPARδ agonists” (Bioorg Med Chem, 2023).
pEC50: −log10 of the molar value.

Legend:
[1] = test system: Mus musculus; test: Antihypercholesterolemic activity against hApoB100/hCETP-dTg hypercholesterolemic mouse model assessed as serum non-HDL-C level at 3 mg/kg, po administered once daily for 8 days; type: functional; settings: time 8 day
[2] = target: T1, Peroxisome proliferator-activated receptor delta (Homo sapiens, UniProt Q03181); test: Agonist activity at Gal4-fused human PPAR-delta ligand binding domain expressed in CHO-K1 cells assessed as receptor transactivation incubated for 24 to 48 hrs by luciferase reporter gene assay; type: cell-based
T1 sequence (Q03181 whole entry): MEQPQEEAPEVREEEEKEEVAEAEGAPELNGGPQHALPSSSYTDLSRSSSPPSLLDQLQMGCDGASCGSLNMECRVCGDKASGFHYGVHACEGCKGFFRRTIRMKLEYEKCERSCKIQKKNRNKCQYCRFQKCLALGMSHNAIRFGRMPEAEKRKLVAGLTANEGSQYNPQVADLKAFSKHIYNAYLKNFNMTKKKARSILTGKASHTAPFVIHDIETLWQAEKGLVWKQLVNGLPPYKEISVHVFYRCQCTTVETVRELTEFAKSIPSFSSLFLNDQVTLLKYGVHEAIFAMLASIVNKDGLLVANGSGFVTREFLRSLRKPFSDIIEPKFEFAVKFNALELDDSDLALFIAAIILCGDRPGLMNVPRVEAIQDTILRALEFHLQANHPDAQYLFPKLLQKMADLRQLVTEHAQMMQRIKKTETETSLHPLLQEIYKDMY

[3] = target: T2, Peroxisome proliferator-activated receptor delta (Homo sapiens) (UniProt Q03181); test: Agonist activity at Gal4-fused human PPAR-delta ligand binding domain expressed in CHO-K1 cells assessed as receptor transactivation incubated for 24 to 48 hrs by luciferase reporter gene assay relative to control; type: cell-based; settings: time lower 24.0 hrs, time upper […]
T2 sequence (whole entry): T1 sequence (Q03181 whole entry)

[4] = Oral bioavailability in rat at 1 mg/kg; type: ADME, organism-based; settings: in vivo
[5] = target: T3, Peroxisome proliferator-activated receptor alpha (Mus musculus) (UniProt P23204); test: Agonist activity at Gal4-fused mouse PPAR-alpha ligand binding domain expressed in CHO-K1 cells assessed as receptor transactivation incubated for 24 to 48 hrs by luciferase reporter gene assay relative to control; type: cell-based; settings: time lower 24.0 hrs, time upper […]
T3 sequence (whole entry): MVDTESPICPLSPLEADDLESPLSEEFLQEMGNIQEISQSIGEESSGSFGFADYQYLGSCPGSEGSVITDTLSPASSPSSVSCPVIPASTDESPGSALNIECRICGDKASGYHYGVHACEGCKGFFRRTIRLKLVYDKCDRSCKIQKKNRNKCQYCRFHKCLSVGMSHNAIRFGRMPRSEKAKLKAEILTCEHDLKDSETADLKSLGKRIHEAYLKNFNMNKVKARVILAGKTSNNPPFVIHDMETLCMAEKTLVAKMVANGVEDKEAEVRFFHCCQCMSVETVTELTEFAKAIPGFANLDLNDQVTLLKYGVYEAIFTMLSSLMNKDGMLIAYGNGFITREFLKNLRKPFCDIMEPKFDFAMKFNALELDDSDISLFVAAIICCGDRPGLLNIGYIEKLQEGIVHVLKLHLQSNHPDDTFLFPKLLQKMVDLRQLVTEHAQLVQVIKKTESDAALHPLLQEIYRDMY

[6] = Cmax in rat at 1 mg/kg, po; type: ADME, organism-based; parameters: dose 1 mg/kg, route po; settings: in vivo
[7] = AUC in rat at 0.5 mg/kg, iv; type: ADME, organism-based; parameters: dose 0.5 mg/kg, route iv; settings: in vivo
[8] = target: T4, Peroxisome proliferator-activated receptor alpha (Mus musculus, UniProt P23204); test: Agonist activity at Gal4-fused mouse PPAR-alpha ligand binding domain expressed in CHO-K1 cells assessed as receptor transactivation incubated for 24 to 48 hrs by luciferase reporter gene assay; type: cell-based
T4 sequence (P23204 whole entry): T3 sequence (whole entry)

[9] = target: T5, Peroxisome proliferator-activated receptor delta (Mus musculus) (UniProt P35396); test: Agonist activity at Gal4-fused mouse PPAR-delta ligand binding domain expressed in CHO-K1 cells assessed as receptor transactivation incubated for 24 to 48 hrs by luciferase reporter gene assay relative to control; type: cell-based; settings: time lower 24.0 hrs, time upper […]
T5 sequence (whole entry): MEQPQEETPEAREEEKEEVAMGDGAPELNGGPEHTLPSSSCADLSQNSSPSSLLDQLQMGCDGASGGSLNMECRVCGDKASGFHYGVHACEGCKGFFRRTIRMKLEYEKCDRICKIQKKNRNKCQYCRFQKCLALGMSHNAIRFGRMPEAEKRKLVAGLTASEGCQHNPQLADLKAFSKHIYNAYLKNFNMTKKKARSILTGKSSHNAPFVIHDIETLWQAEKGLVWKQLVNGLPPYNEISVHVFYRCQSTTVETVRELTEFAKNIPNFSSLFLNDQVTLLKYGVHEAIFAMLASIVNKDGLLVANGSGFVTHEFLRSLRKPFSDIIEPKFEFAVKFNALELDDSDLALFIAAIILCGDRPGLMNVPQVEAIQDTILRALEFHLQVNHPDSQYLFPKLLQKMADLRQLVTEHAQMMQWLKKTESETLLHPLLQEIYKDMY

[10] = test system: Mus musculus; test: Antihypercholesterolemic activity against hApoB100/hCETP-dTg hypercholesterolemic mouse model assessed as serum HDL-C level at 3 mg/kg, po administered once daily for 8 days; type: functional; settings: time 8 day
[11] = Clearance in rat at 0.5 mg/kg, iv; type: ADME, organism-based; settings: in vivo
[12] = Half life in rat at 0.5 mg/kg, iv; type: ADME, organism-based; settings: in vivo
[13] = target: T6, Peroxisome proliferator-activated receptor delta (Mus musculus, UniProt P35396); test: Agonist activity at Gal4-fused mouse PPAR-delta ligand binding domain expressed in CHO-K1 cells assessed as receptor transactivation incubated for 24 to 48 hrs by luciferase reporter gene assay; type: cell-based
T6 sequence (P35396 whole entry): T5 sequence (whole entry)

[14] = test system: Mus musculus; test: Antihypercholesterolemic activity against hApoB100/hCETP-dTg hypercholesterolemic mouse model assessed as serum total cholesterol level at 3 mg/kg, po administered once daily for 8 days; type: functional; settings: time 8 day
[15] = AUC in rat at 1 mg/kg, po; type: ADME, organism-based; parameters: dose 1 mg/kg, route po; settings: in vivo
[16] = target: T7, Peroxisome proliferator-activated receptor gamma (Mus musculus, UniProt P37238); test: Agonist activity at Gal4-fused mouse PPAR-gamma ligand binding domain expressed in CHO-K1 cells assessed as receptor transactivation incubated for 24 to 48 hrs by luciferase reporter gene assay; type: cell-based
T7 sequence (P37238 whole entry): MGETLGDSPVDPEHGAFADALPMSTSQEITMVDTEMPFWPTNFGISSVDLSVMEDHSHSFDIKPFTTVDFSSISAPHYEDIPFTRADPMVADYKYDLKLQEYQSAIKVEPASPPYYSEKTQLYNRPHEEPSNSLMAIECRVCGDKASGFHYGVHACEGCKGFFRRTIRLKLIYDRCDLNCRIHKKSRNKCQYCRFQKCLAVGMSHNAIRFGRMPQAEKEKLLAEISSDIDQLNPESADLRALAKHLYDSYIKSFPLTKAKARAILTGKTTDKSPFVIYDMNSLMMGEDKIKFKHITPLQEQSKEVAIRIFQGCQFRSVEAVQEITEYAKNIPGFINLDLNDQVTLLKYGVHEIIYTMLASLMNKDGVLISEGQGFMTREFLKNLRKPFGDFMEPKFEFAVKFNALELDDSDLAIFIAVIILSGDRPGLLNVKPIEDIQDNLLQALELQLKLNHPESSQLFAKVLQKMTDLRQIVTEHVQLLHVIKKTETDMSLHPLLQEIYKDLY

[17] = target: T8, Peroxisome proliferator-activated receptor alpha (Homo sapiens) (UniProt Q07869); test: Agonist activity at Gal4-fused human PPAR-alpha ligand binding domain expressed in CHO-K1 cells assessed as receptor transactivation incubated for 24 to 48 hrs by luciferase reporter gene assay relative to control; type: cell-based; settings: time lower 24.0 hrs, time upper […]
T8 sequence (whole entry): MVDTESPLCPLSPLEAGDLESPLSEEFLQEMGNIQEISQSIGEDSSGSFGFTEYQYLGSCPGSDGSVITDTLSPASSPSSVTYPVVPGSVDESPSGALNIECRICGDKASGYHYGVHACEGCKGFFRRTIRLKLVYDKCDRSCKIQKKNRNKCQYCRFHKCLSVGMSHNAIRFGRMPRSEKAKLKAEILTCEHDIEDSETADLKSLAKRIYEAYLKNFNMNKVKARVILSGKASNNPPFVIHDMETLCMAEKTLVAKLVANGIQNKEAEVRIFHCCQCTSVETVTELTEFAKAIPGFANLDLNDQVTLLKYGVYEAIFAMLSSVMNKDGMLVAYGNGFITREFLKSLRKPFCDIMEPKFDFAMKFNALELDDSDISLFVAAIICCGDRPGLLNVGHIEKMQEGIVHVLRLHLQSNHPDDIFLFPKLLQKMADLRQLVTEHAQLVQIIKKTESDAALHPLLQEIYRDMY

[18] = organism: Mus musculus; test: Selectivity ratio of EC50 for agonist activity at Gal4-fused mouse PPAR-gamma ligand binding domain expressed in CHO-K1 cells to EC50 for agonist activity at Gal4-fused mouse PPAR-delta ligand binding domain expressed in CHO-K1 cells; type: cell-based
[19] = organism: Mus musculus; test: Selectivity ratio of EC50 for agonist activity at Gal4-fused mouse PPAR-alpha ligand binding domain expressed in CHO-K1 cells to EC50 for agonist activity at Gal4-fused mouse PPAR-delta ligand binding domain expressed in CHO-K1 cells; type: cell-based
[20] = organism: Homo sapiens; test: Selectivity ratio of EC50 for agonist activity at Gal4-fused human PPAR-alpha ligand binding domain expressed in CHO-K1 cells to EC50 for agonist activity at Gal4-fused human PPAR-delta ligand binding domain expressed in CHO-K1 cells; type: cell-based

SMILES | pEC50 [2] | Emax [3] [%] | bioavailability [4] [%] | Emax [5] [%] | Cmax [6] [ng/mL] | AUC [7] [ng·h/mL] | pEC50 [8] | Emax [9] [%] | clearance [11] [mL/min/kg] | half-life [12] [h] | pEC50 [13] | AUC [15] [ng·h/mL] | pEC50 [16] | Emax [17] [%] | Activity [1] [%] | Activity [10] [%] | Activity [14] [%] | Ratio EC50 [18] | Ratio EC50 [19] | Ratio EC50 [20]
CC[C@H]1CN(c2nc3ccc(C(F)(F)F)cc3s2)CCN1CCOc1cc(CC(=O)O)ccc1Cl | – | – | 18.9 | 8 | 10 | 399 | 5.60 | 31.7 | 21.5 | 2.7 | 8.21 | 151 | 6.62 | – | 82 | 156 | 94 | – | – | –
Cc1cc(CC(=O)O)cc(CN2CCN(c3nc4ccc(C(F)(F)F)cc4s3)[C@H](CC(C)C)C2)c1 | 8.37 | 17.5 | 62.9 | 1.4 | 895 | 5680 | – | 24.8 | 1.47 | 6.7 | 8.16 | 7140 | – | 1.6 | 75 | 145 | 83 | – | – | –

Continued by rising pEC50 [8], values first:

pEC50 [2] | Emax [3] [%] | bioavailability [4] [%] | Emax [5] [%] | Cmax [6] [ng/mL] | AUC [7] [ng·h/mL] | pEC50 [8] | Emax [9] [%] | clearance [11] [mL/min/kg] | half-life [12] [h] | pEC50 [13] | AUC [15] [ng·h/mL] | pEC50 [16] | Emax [17] [%] | SMILES | Activity [1] [%] | Activity [10] [%] | Activity [14] [%] | Ratio EC50 [18] | Ratio EC50 [19] | Ratio EC50 [20]
– | – | 26.4 | 7.2 | 11 | 190 | 5.57 | 34 | 45.6 | 1.4 | 8.16 | 101 | 6.62 | – | C[C@H]1CN(c2nc3ccc(C(F)(F)F)cc3s2)CCN1CCOc1cc(CC(=O)O)ccc1Cl | 80 | 113 | 76 | – | – | –
8.39 | 18.6 | 85.8 | 10.3 | 2050 | 26700 | 5.70 | 25 | 0.31 | 9.5 | 7.92 | 45900 | – | – | Cc1cc(CC(=O)O)cc(CN2CCN(c3nc4ccc(C(F)(F)F)cc4s3)[C@@H](C(C)C)C2)c1 | 56 | 188 | 72 | – | – | –
– | 16.2 | – | 15.5 | – | – | 5.95 | 20 | – | – | – | – | – | 8 | Cc1ccc(CC(=O)O)cc1OCCC1CCN(c2nc3ccc(Cl)cc3s2)CC1 | – | – | – | 10 | 16 | 39
